The text below walks through data of patent US20200123104A1, “PHARMACEUTICAL AGENT THAT BINDS THE P2X7 RECEPTOR” (Indiana University Research and Technology Corporation, priority 2017, published 2020).

In series [1] the target is T1, human P2X7R (HEK293-hP2X7R) (Homo sapiens, UniProt Q99572).
T1 construct: expressed in transfected cells; host or cells: HEK293
T1 sequence (Q99572 1-595): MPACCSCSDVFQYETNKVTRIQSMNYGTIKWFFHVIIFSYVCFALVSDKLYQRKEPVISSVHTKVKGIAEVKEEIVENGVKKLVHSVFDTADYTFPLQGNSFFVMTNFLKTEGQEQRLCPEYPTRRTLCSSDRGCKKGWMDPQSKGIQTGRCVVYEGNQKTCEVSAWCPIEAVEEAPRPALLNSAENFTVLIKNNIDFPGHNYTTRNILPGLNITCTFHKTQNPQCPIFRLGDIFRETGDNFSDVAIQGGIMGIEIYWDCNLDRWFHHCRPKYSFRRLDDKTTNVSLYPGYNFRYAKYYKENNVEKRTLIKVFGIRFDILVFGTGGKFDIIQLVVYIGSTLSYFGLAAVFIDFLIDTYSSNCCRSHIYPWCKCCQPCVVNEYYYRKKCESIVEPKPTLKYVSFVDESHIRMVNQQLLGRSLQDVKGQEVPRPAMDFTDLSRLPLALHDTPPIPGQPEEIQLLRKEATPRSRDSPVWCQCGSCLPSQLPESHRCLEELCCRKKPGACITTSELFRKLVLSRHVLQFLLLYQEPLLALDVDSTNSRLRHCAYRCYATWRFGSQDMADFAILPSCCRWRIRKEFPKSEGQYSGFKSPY
Nature of the series: Saturation and kinetic radioligand binding of 11C-GSK1482160 to HEK293-hP2X7R.
Experimental: Receptor density (Bmax) is determined by a saturation approach as employed with each P2X7-receptor ligand employing [^11C]GSK1482160 as a convenient reference ligand that is expected to bind in the same region of the receptor. […] Samples and control wells are run in triplicate at each concentration. After equilibrium has been reached, separation of bound from free [^11C]GSK1482160 radioligand is performed using a 96-well filtration apparatus. To estimate receptor association (kon) and dissociation (koff) rates, an association/dissociation kinetic experiment is performed. Association is measured as a function of time using cell membrane homogenate from HEK-P2X7 cells incubated with 2-4 concentrations of the ^18F-radioligand. Dissociation is measured in the presence of excess authentic standard once at steady state according to published methods. Radioactivity for both studies is measured on the filters (or filter plates) using a Perkin-Elmer TopCount Data is analyzed and plotted using GraphPad Prism to obtain Bmax and Kd values for the compound.

The conditions of series [2]: in vivo; cited from earlier work.
The target of series [3] is T2, P2X7 receptor (Homo sapiens, UniProt Q99572).
T2 sequence (Q99572 1-595): T1 sequence (Q99572 1-595)
To be noted: read-out: P2X7 receptor affinity (KB) (converted); cited from earlier work.

Series [4] has as its target T2, P2X7 receptor. Description: Competitive binding with [11C]GSK1482160 as reference tracer, membrane homogenate of HEK cells transfected with the human P2X7 gene. To be noted: HEK-hP2X7 membrane homogenate, [11C]GSK1482160 reference tracer. Also noted: host or cells: HEK (human embryonic kidney) cells, membrane homogenate.
Experimental: Samples and control wells are run in triplicate at each concentration. After equilibrium has been reached, separation of bound from free [^11C]GSK1482160 radioligand is performed using a 96-well filtration apparatus. To estimate receptor association (kon) and dissociation (koff) rates, an association/dissociation kinetic experiment is performed. Association is measured as a function of time using cell membrane homogenate from HEK-P2X7 cells incubated with 2-4 concentrations of the ^18F-radioligand. Dissociation is measured in the presence of excess authentic standard once at steady state according to published methods. Radioactivity for both studies is measured on the filters (or filter plates) using a Perkin-Elmer TopCount Data is analyzed and plotted using GraphPad Prism to obtain Bmax and Kd values for the compound.

Each structure is given as a SMILES string. “And” between values parts separate entries of the source, which are not always exact repeats. Equal values may be shown once.

Turning to `[11CH3]N1C(=O)CC[C@H]1C(=O)NCc1cccc(C(F)(F)F)c1Cl` [[^11C]GSK1482160], the Kd in series [1] (read-out: K) is 1.15 ± 0.12 nM. For the same compound, the off-rate (koff) in series [1] (read-out: dissociation constant koff (converted)) is 0.00425 s⁻¹. Moreover, the “crossing of the blood-brain barrier” value in series [2] is listed as “readily crosses the blood-brain barrier”. The Kb in series [3] is 95.9 nM and 95 nM. Further, the inhibitory constant (Ki) in series [4] was determined as 5.14 ± 0.85 nM.
